Laboratory results published in patent US12708629B2, “Methods and compositions for reducing parathyroid levels” (EIRGEN PHARMA LTD., priority 2010, dated 2026).

Assays:
iPTH = test: Example 8: iPTH in Stage 3 or 4 CKD subjects; type: in vivo, human; details: single dose: IV 448 μg or 450 μg MR
Excerpt: (§1) The modified release dosage formulation was the same as formulation 7 in Table 2 herein, with the following exceptions: (1) a vegetable-based capsule was used in place of a gelatin capsule; (2) hard paraffin content was reduced to 20%; and (3) liquid paraffin (light mineral oil) content was increased to 30%.
(§2) The bioavailability of the modified release dosage form was about 10% measured over the duration of the study (42 days).

clinical = details: human, in vivo, 450 ug
Excerpt: as §1, §2

[1] = Single-dose pharmacokinetics of oral 25-hydroxyvitamin D3 formulations and IV injection in miniature swine (Example 1); type: in vivo, Yucatan miniature swine
Protocol: Nine oral vitamin D formulations were prepared according to Table 2 below by homogeneously mixing the identified components in the amounts shown and filling the mixtures into hard gelatin capsules. Formulation 9 is an immediate-release formulation according to the prior art, wherein MIGLYOL 812N is the trade name for caprylic/capric triglycerides, available from CONDEA Chemie GmbH of Cranford, New Jersey, USA. […] Each group included five animals.
Blood was collected pre-dose, and at 0.5, 1, 2, 4, 6, 8, 12, 24, 48, 96, 168, 240, 336, 432, 504, 576, and 672 hours post dosing. Serum 25-hydroxyvitamin D3 levels were assayed by Liquid Chromatography/Mass Spectrometry/Mass Spectrometry (LC MS/MS).

[2] = Expected rise of serum 25-hydroxyvitamin D3 in a human, stated after the mini-pig result; type: in vivo; details: single dose of 50 μg to a human (about 60 kg)
[3] = Yucatan, minipig, serum, iv, 250 ug

Cmax (clinical): 134 ± 19 ng/mL | half-life (clinical): 1780 h | tmax, AVG (clinical): 0.49 h | Tmax (clinical; AVG): 0.5 ± 0.6 h | Tmax (clinical; Median): 0.25 h | AUC(0-inf) [1, 3]: 16600 ng·h/mL | Cmax [1, 3]: 155 ng/mL | Tmax [1, 3]: 1.5 h | AUC(0-t) ([1]; Yucatan, minipig, serum, iv, 250 ug, read-out: AUC (0-672 hr)): 15000 ng·h/mL | half-life ([1]; Yucatan, minipig, serum, iv, 250 ug, read-out: T½ (converted)): 132 h | BA ([1]; single 250 μg dose, Group 10 IV injection = 100.0): 100.0% | expected increase of serum 25-hydroxyvitamin D3 [2]: about 1.4 ng/ml
Structure (SMILES): C=C1CC[C@H](O)C/C1=C/C=C1\CCC[C@]2(C)[C@@H]([C@H](C)CCCC(C)(C)O)CC[C@@H]12 [25-hydroxyvitamin D3]
effect on mean iPTH (iPTH): minimal to no effect | effect on mean iPTH (iPTH; listed as IV calcifediol): no clinically meaningful effect
